In general, pIC50 refers to −log10 of the IC50, conventionally taken in molar units. Low values mean a large IC50, high ones a small IC50.

pIC50: −log10 of the molar value.

We go through 15 molecules from BindingDB's records for doi:10.7270/Q2WS8RVZ (Burnham Center For Chemical Genomics, 2012).

Sequence of Endothelial PAS domain-containing protein 1 (Q99814 whole entry, the tested form may be a part): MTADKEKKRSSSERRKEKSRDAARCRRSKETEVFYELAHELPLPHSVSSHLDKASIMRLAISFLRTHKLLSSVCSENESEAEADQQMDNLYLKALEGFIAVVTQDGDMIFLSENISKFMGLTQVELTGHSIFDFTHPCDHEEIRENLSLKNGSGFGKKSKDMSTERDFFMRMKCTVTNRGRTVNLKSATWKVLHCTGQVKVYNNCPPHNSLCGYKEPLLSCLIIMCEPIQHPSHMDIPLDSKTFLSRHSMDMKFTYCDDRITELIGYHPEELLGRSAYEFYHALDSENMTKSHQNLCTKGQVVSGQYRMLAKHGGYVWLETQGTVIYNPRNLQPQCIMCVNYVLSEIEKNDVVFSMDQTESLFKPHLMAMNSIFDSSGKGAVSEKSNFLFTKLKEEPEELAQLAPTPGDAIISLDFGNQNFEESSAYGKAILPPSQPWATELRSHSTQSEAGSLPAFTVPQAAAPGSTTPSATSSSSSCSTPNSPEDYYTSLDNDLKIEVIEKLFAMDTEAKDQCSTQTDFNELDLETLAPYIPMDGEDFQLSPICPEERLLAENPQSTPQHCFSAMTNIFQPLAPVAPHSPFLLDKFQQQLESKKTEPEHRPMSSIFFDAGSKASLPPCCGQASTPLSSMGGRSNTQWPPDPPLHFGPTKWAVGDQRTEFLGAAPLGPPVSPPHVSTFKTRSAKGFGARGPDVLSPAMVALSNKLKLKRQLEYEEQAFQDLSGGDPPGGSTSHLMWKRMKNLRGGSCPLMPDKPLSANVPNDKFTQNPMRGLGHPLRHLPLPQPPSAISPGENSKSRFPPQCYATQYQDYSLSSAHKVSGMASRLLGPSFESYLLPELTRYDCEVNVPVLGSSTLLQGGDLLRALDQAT

The assay has as its target Endothelial PAS domain-containing protein 1 (Homo sapiens, UniProt Q99814).
For `Cc1ccc(CN=Nc2cccc(C(=O)O)c2)s1`, the pIC50 was 4.19.

In turn, `CC(C)(C)c1ccc(CN=Nc2ccc(C(=O)O)cc2)cc1` showed a pIC50 of 4.30.

The molecule `O=C(O)c1ccc(N=NCc2ccc3ncccc3c2)cc1` showed a pIC50 of 4.19.

In turn, `Cc1nn(-c2ccccc2)c(Cl)c1CN=Nc1ccc(Cl)c(C(=O)O)c1` [2-chloro-5-[2-[(5-chloro-3-methyl-1-phenylpyrazol-4-yl)methylidene]hydrazinyl]benzoic acid] gave a pIC50 of 4.19.

`Cc1nn(-c2ccccc2Cl)c(Cl)c1CN=Nc1cccc(C(=O)O)c1` [3-[2-[[5-chloro-1-(2-chlorophenyl)-3-methylpyrazol-4-yl]methylidene]hydrazinyl]benzoic acid] showed a pIC50 of 4.62.

`CCOc1cc(CN=Nc2cccc(C(=O)O)c2)ccc1OC(=O)c1ccccc1` [3-[(N''E)-N''-(4-benzoyloxy-3-ethoxy-benzylidene)hydrazino]benzoic acid] gave a pIC50 of 5.37. Against the preceding molecule, the pIC50 is 0.75 log units higher.

Molecule `O=C(O)c1cccc(N=NCc2cccs2)c1` [3-[(N'E)-N'-(2-thenylidene)hydrazino]benzoic acid] gave a pIC50 of 5.24.

For the molecule `CSc1ccc(CN=Nc2cccc(C(=O)O)c2)cc1` [3-[(N'E)-N'-[4-(methylthio)benzylidene]hydrazino]benzoic acid], the pIC50 was 5.27.

On to `CC(C)c1ccc(CN=Nc2ccc(C(=O)O)cc2)cc1` [4-[2-[(4-propan-2-ylphenyl)methylidene]hydrazinyl]benzoic acid], for which the pIC50 is 5.39. The pIC50 values of the last two molecules are within 0.2 log units of each other.

Molecule `COc1cc(CN=O)ccc1OCc1ccc(C(=O)O)cc1` [4-[[4-(hydroximinomethyl)-2-methoxy-phenoxy]methyl]benzoic acid] had a pIC50 of 5.37.

Turning to `O=C(O)c1cc(N=NCc2ccc3c(c2)OCCO3)ccc1Cl` [SMR000242957], the pIC50 is 5.30. The pIC50 values of the last two molecules are within 0.2 log units of each other.

For `COc1cccc(C/N=N/c2ncccc2[N+](=O)[O-])c1OC` [SMR000461041], the pIC50 is 5.09.

In turn, `c1ccc(CN=Nc2ccc3ccccc3n2)nc1` [SMR002048648] gave a pIC50 of 5.25. The pIC50 values of the last two molecules are within 0.2 log units of each other.

The molecule `CCOC(=O)Cc1csc(N=NCc2ccc(C(F)(F)F)cc2)n1` [ethyl 2-[2-[(2E)-2-[[4-(trifluoromethyl)phenyl]methylidene]hydrazinyl]-1,3-thiazol-4-yl]ethanoate] showed a pIC50 of 4.30.

In turn, `O=C(O)c1ccc(N=NCc2ccc(C(F)(F)F)cc2)cc1` [sulfuric acid;4-[(N'E)-N'-[4-(trifluoromethyl)benzylidene]hydrazino]benzoic acid] gave a pIC50 of 5.01.
